According to a melting point compilation (Tetko et al.; mined from patent text by program, amines drawn as free bases though some values may be those of a salt):

SMILES	melting point [°C]
O=C(O)c1ccc2c(c1)S(=O)(=O)c1ccccc1CC2	248 to 250
Clc1ccc2c(c1)Cc1cc(Cl)ccc1OCCOCCOCCOCCO2	144
O=C(Oc1ccccc1Br)c1cc(-c2ccccc2)cn1CCc1ccccc1Br	90 to 92
CCOC(=O)C(Cl)=Cc1cc([N+](=O)[O-])ccc1Cl	91
COc1cc2c(=O)n(CCCO)c3c4ccccc4[nH]c(=O)c3c2cc1OC	313
Cc1nccn1-c1ccc(COc2cccc(C3(C(N)=O)CCCC3)c2)cc1	163 to 164
COc1cc(Nc2c(C#N)cnc3cc(I)sc23)c(Cl)cc1Cl	233 to 234
Cc1ccc2c(O)cc(=O)oc2c1C	186 to 190
CS(=O)(=O)c1ccc(Oc2cc(OCc3cccc(Cl)n3)c3[nH]c(C4=NCC(CC(=O)O)S4)cc3c2)cc1 (centres undefined)	175 to 176
CC(C)Oc1ccc(S(=O)(=O)N2CCCC2=O)cc1	88 to 90
CCCN(CCCNc1ncc(Cc2ccc3c(c2)OCO3)c(=O)[nH]1)c1ccccn1	86 to 92
O=C(O)Cc1ccc(C(=O)c2ccccc2)cc1[N+](=O)[O-]	168 to 170
CC1=C(C(=O)Nc2cccc(C#N)c2)SCCO1	119 to 121
Cc1c(NC(=O)CC(C)(C)C)cc2c(c1C)OC(C)(C)C2(O)c1ccccc1 (centres undefined)	109 to 111
COc1cc2c(cc1Nc1ncc(Cl)c(Nc3ccc(N4CCOCC4)cc3OC)n1)CCN(C[C@H](O)C(F)(F)F)CC2	95 to 102
COc1cccc(OCC2CC2)c1-c1cc(C(=O)C2(C(=O)O)C3CC4CC(C3)CC2C4)nn1-c1ccnc2cc(Cl)ccc12 (centres undefined)	200
CC(=O)Nc1cccc(/C=C/C(=O)N2CC(CCl)c3ccc([N+](=O)[O-])cc32)c1 (centres undefined)	229 to 230
CCCCC=CC(=O)Nc1ccccc1	50
O=C(c1ccc(-c2ccccn2)s1)N1CCCCc2sccc21	150 to 154
C/C(=C\COC(=O)c1ccccc1)CCc1c(C)c(O)c(C)c(C)c1O	112 to 114
COC(=O)C(C)c1noc2cc(F)c(N3C(=O)C(C)=C(C)C3=O)cc12 (centres undefined)	106 to 107
CCCc1nc2c(N)nc(C)c(C)c2n1CCCCCS(=O)(=O)c1ccc(F)cc1	130 to 132
CCOc1cncc(N2CCN3CCCC3C2)n1 (centres undefined)	101 to 102
Cc1ccc2[nH]c(SCC(F)(F)F)nc2c1	159 to 161
O=C(CN1CCC(Cc2ccccc2)CC1)Nc1cccc([N+](=O)[O-])c1	102 to 104

SMILES	melting point [°C]
NS(=O)(=O)c1cc2[nH]c(Cc3ccccc3Cl)nc2cc1Cl	223 to 226
O=C(O)COc1ccc(OC(F)(F)F)cc1C(=S)NCc1cccc([N+](=O)[O-])c1	158 to 161
Cc1cc(C)nc(-n2ncnc2N)n1	230 to 232
CC(C)(C)CC(C)(C)c1cc(Cl)c(O)c(-n2nc3ccc(C(F)(F)F)cc3n2)c1	72 to 81
CC1(C)Cc2c(N)c(Cl)cc(C(=O)NC3CCN(CCCC4(C)OCCO4)CC3)c2O1	136
CNCc1cccc(C2CCN(c3c(F)c(N)c4c(=O)c(C(=O)O)cn(C5CC5)c4c3F)C2)c1 (centres undefined)	> 270
CC(C)(C)C(=O)Oc1c(N2CCCC2)c(=O)n(-c2ccccc2)c2ncccc12	163 to 165
COCc1nc2c(N)nc3ccccc3c2n1Cc1ccccc1	202 to 204
N#Cc1nn(-c2c(Cl)cc(C(F)(F)F)cc2Cl)cc1OC(F)F	85 to 87
CCOC(=O)C(C)Oc1ncn(-c2ccc(OC)cc2)n1 (centres undefined)	62 to 64
N#CC1=CC(Br)=NC1(N)C#N (centres undefined)	> 210
CCn1nc(C(F)(F)F)cc1NC(=O)C1C(C)=CC=CC1(C(N)=O)C(C)C (centres undefined)	223 to 226
COc1ccc(OCc2cn(C34CC5CC(CC(C5)C3)C4)nn2)cc1OC	108 to 112
CCC(CC)C(c1ccnn1-c1ccccc1)N(C)S(=O)(=O)c1ccc(Br)s1 (centres undefined)	116 to 118
COC(=O)c1sc(Cl)cc1N	99 to 101
CC(=O)OCCN(C(=O)Cn1c(=O)n(C)c2nc(-c3ccccc3)ncc21)c1ccccc1	158 to 160
Cc1cc(C2=CCN(CCCC(=O)c3ccc(F)cc3)CC2)on1	96 to 98
CC(C)CN(Cc1nnc(-c2ncn3c2CN(C)C(=O)c2c(Cl)cccc2-3)o1)CC(C)C	161 to 163
CNC(=O)c1cccc(Nc2ncnc3[nH]cc(C(=O)c4cccc(F)c4)c23)c1	> 300
CCOC(=O)C(=O)Nc1c([N+](=O)[O-])sc2ccc(F)cc12	129 to 131
CC12CCC(F)CC1=CCC1C2CCC2(C)C(O)CCC12 (centres undefined)	165 to 166
Cc1cc(C)nc(NC(=O)Cc2ccc(Br)s2)c1	87
O=C(O)c1ccc(OCCn2ncc3nc(C(=O)NCc4cccc(OCCOc5nc[nH]n5)c4)[nH]c(=O)c32)cc1	176 to 178
O=C1c2nccnc2C(O)N1c1ccc2ccc(Cl)nc2n1 (centres undefined)	270
CC1CCCN1c1ccccc1NC(N)=S (centres undefined)	145 to 148

SMILES	melting point [°C]
Nc1ncc(-c2ccc3c(c2)CCC(N2CCOCC2)CC3)c(N)n1 (centres undefined)	118
CC(=O)N1CCc2ccc(/C=C/CCN3CCC(c4ccc(Cl)cc4)CC3)cc2CC1	153 to 155
CC1=C(c2cccc(C(F)(F)F)c2)n2ncc3c(=O)nc(NC(C)C)n(c32)C1	284 to 286
CCOC(=O)c1c(O)c2cc(Br)ccc2c(=O)n1CC1CC1	64 to 65
Cc1cccc(C2=C(c3ccc(S(C)(=O)=O)cc3)OC3(CCCCC3)C2=O)c1	154 to 155
COc1cc([C@@H]2c3cc4c(cc3C(=O)C[C@H]2C(=O)O)OCO4)cc(OC)c1OC (relative stereo)	221 to 223
Cc1ncc2cc(C(c3ccccc3)n3ccnc3)ccc2n1 (centres undefined)	130
COC(=O)c1cc(C)c(C(=O)O)c(C)c1	191 to 192
CCCn1c(CCOC)nc2c(N)nc3cc(OC4CCN(C(N)=O)CC4)ccc3c21	207 to 208
CC(=O)c1cc(-c2ccc(S(C)(=O)=O)cc2)c(-c2ccc(F)cc2)s1	169 to 172
CCOC(=O)C1=C(C)NC(CCn2ccnc2)=C(C(=O)OCC)C1c1ccccc1[N+](=O)[O-] (centres undefined)	140 to 141
N#Cc1cc(-c2nc3cncnc3s2)ccc1Sc1ccccc1F	178 to 180
COC(=O)NNC(=O)C(O)(c1ccccc1)c1ccccc1	160 to 161
Cc1cc(-c2ccccc2)nc(-c2cccc([N+](=O)[O-])c2)c1C(=O)N1CCN(C)CC1	127 to 129
O=C(Cn1nnc2ccccc21)Nc1ccc(-n2nc(C3CC3)cc2C2CC2)c(F)c1	201 to 203
CNC[C@H]1CC[C@H](C(=O)O)CC1	261
CCCN(CCC(N)=O)CCC(N)=O	101 to 102
COC(=O)c1ccc(NC(=O)c2ccccc2Cc2ccccc2)cc1	138 to 139
COc1ccc2cc(C(=O)CNC(=O)c3cn(Cc4ccccc4)c4ccccc34)ccc2c1	177 to 179
O=C(O)c1cc2c(cc1C(=O)O)COCC2	179 to 181
CCOC(=O)NCc1cccc(C(=O)OC)c1C(=O)OC	187 to 189
O=C(O)c1ccc2c(c1)Cc1ccccc1CO2	240 to 244
O=C=Nc1cccc(-c2nc3ccccc3c(=O)o2)c1	115 to 121
CC(C)[C@H](NC(=O)N(C)Cc1ccccn1)C(=O)N[C@@H](Cc1ccccc1)[C@@H](O)[C@@H](O)[C@H](Cc1ccccc1)NC(=O)OCc1cccnc1	84 to 85
Nc1c(F)c(N2CCCCCC2)c(F)c2c1c(=O)c(C(=O)O)cn2C1CC1	234 to 236

SMILES	melting point [°C]
COc1ccc(CC(C)N)cc1S(N)(=O)=O (centres undefined)	180
Cc1cc(NC(=O)C2=C(O)c3ccccc3N(c3ccccc3)C2)no1	148 to 150
COC(=O)c1cccc2nnsc12	130 to 133
CC1(C(O)(COc2ccc(Cl)cc2)Cn2cncn2)CC1(F)F (centres undefined)	110
C(=C(c1ccccc1)c1ccccc1)C1CCN(CCCCCCCCc2cccnc2)CC1	54 to 55
COc1ccc(-n2nc(Cl)cc2-c2ccc(OCCNC(N)=O)cc2)cn1	156 to 158
CC(=O)Nc1cc(N)cc([N+](=O)[O-])c1	204 to 205
O=C1COc2ccc(C3=Nc4ccccc4SC3)cc2N1	280 to 281
Cc1nn(-c2ccccn2)c2nc3ccccc3c(N3CCOCC3)c12	203 to 205
Cc1c(-c2cccc(O)c2O)c(=O)oc2cc(O)ccc12	273 to 274
CC1(C)C=C(N2Cc3ccccc3C2=O)c2cc(S(=O)(=O)C(F)(F)C(F)(F)C(F)(F)F)ccc2O1	164 to 166
COc1ccccc1-c1ccc2ccc(NC(=O)c3cccc(Br)c3)nc2n1	110
COc1cc(C=O)c2oc(-c3ccc(OC)c(F)c3)cc2c1	161 to 163
O=[N+]([O-])c1ccc(NCCCn2ccnc2)c(F)c1	144
Cc1cc(C(=O)N2C(C)CCCC2C)ccc1[N+](=O)[O-] (centres undefined)	99.7 to 100
O=C(O)COc1cc(Cl)ccc1C(=O)NCc1cccc(C(F)(F)F)c1	179 to 181
Cc1ccccc1Cc1n[nH]c2c1c(=O)n(-c1cccc(OC(F)(F)F)c1)c1ncccc21	240 to 242
COc1ccc2c(-c3ccccc3F)noc2c1I	135 to 138
COc1cc2c(cc1OC)C(=O)C(Cc1ccncc1)C2 (centres undefined)	192 to 193
CC1(CCS)C(=O)N2CC=CC(C(=O)O)N2C1=O (centres undefined)	113 to 114
O=C(CS(=O)Cc1ccc(Cl)c(Cl)c1)NO (centres undefined)	191 to 192
CCCCOCCOc1ccc(-c2ccc3c(c2)C=C(C(=O)Nc2ccc(OCc4nccn4CCC)cc2)CCN3CC(C)C)cc1	118 to 120
CC(C)(CCCCOc1cc(-c2ccccc2)cc(-c2ccccc2)n1)c1nnn[nH]1	160 to 162
COc1ccc(S(=O)(=O)N2CCc3cccc(-c4ccc(C=O)cc4)c32)cc1	152 to 153
